Measured values reported in US11840560B2, “Prodrugs and uses thereof” (Novo Nordisk A/S, priority 2022, dated 2023).
*1 amine or outer side, *2 acyl side, *3 side chain or, on linkers, in order; H or OH if unused. Where a SMILES comes first, the peptide text is derived from it. Side-chain parts run from the residue outwards. [ ]: non-standard residue; d: D form. The star is where a group is joined. X1 = O=C(O)CCCCCCCCCCCCCCC(=O)N[C@@H](CCC(=O)NCCCC[C@H](NC(=O)CC[C@H](NC(=O)CCCCCCCCCCCCCCC(=O)O)C(=O)O)C(=O)*)C(=O)O; C18 diacid = O=C(O)CCCCCCCCCCCCCCCCC(=O)*; C16 diacid = O=C(O)CCCCCCCCCCCCCCC(=O)*; γGlu = O=C(O)[C@H](CCC(=O)[*:2])N[*:1]; εLys = N[C@@H](CCCCN[*:1])C(=O)[*:2]; AEEA = NCCOCCOCC(=O)O; Aib = CC(C)(N)C(=O)O; Sar = CNCC(=O)O

Experiments:
[1] = in vivo; design: species or system Göttingen minipigs; settings: female, Göttingen, minipig, iv
Description: The purpose of this method is to determine the half-life in vivo of the derivatives of the present invention after i.v. administration to minipigs, i.e. the prolongation of their time in the body and thereby their time of action. This is done in a pharmacokinetic (PK) study, where the terminal half-life of the derivative in question is determined. By terminal half-life is generally meant the period of time it takes to halve a certain plasma concentration, measured after the initial distribution phase.
Female Göttingen minipigs were obtained from Ellegaard Göttingen Minipigs (Dalmose, Denmark) approximately 7-14 months of age and weighing from approximately 16-35 kg were used in the studies. The minipigs were housed individually and fed restrictedly once daily with SDS minipig diet (Special Diets Services, Essex, UK).
After at 3 weeks of acclimatisation two permanent central venous catheters were implanted in vena cava caudalis in each animal. The animals were allowed 1 week recovery after the surgery, and were then used for repeated pharmacokinetic studies with a suitable wash-out period between successive derivative dosing.
The animals were fasted for approximately 18 hours before dosing and from 0 to 4 hours after dosing but had ad libitum access to water during the whole period.
The sodium salts of compounds of Examples 1 were prepared using method SX_A under General Methods for preparation of the compounds of the invention. The resulting sodium salts were dissolved to a concentration of 50-300 nmol/mL in a buffer containing 0.007% polysorbate 20, 50 mM sodium phosphate, 70 mM sodium chloride, pH 7.4. Intravenous injections (the volume corresponding to usually 1-20 nmol/kg, for example 0.02-0.05 mL/kg) of the compounds were given through one catheter, and blood was sampled at predefined time points for up to 21 days post dosing (preferably through the other catheter). Blood samples (for example 0.8 mL) were collected in 8 mM EDTA buffer and then centrifuged at 4° C. and 1942 g for 10 minutes.
Plasma was pipetted into Micronic tubes on dry ice and kept at −20° C. until analysed for plasma concentration of the compounds using ELISA, or a similar antibody-based assay, or LCMS. Individual plasma concentration-time profiles were analysed by a non-compartmental model in Phoenix WinNonLin ver. 6.4. (Pharsight Inc., Mountain View, CA, USA), and the resulting terminal half-lives (harmonic mean) determined.
The terminal half-lives and/or the observed terminal half-lives, measured as described herein in General Methods for Measuring Terminal Half-Life in Minipigs are shown in Table 7. […] This provides evidence that conversion of prodrug to parent compound is occurring in vivo. The terminal half-life of the prodrug may be faster or slower than the corresponding parent compound due to the contribution of conversion on the terminal half-life of the prodrug.

[2] = in vivo; design: species or system beagle dogs; settings: dog, po, 300 mg; for Tmax / half-life: male, beagle
Description: The purpose of this method is to determine the terminal half-life and plasma exposure in vivo of the compounds of the present invention after p.o. administration to beagle dogs, i.e. the terminal half-life and concentration of test substance that reaches circulation with time. This is done in a pharmacokinetic (PK) study, where these parameters of the compound in question are determined. By terminal half-life is generally meant the period of time it takes to halve a certain plasma concentration, measured after the initial distribution phase.
Tablet compositions comprising the test compounds obtained from Example 1 and SNAC (sodium N-(8-(2-hydroxybenzoyl)amino)caprylate) were prepared according to methods known to the person skilled in the art by mixing test substance with roller compacted SNAC and magnesium stearate as e.g. described in WO 2019/149880. Each tablet was comprised of 7.7 mg magnesium stearate, 2-4 mg of each compound tested, and 300 mg SNAC.
Male beagle dogs, 1-7 years of age and weighing 9-17 kg during the study period, were included in the study. The dogs were dosed in a fasting state. The dogs were group housed in pens (12 hours light: 12 hours dark), and fed individually and restrictedly once daily with Royal Canin Medium Adult dog food (Royal Canin Products, China Branch, or Brogaarden A/S, Denmark). The dogs were used for repeated PK studies with a suitable wash-out period between successive dosing. An appropriate acclimatisation period was given prior to initiation of the first PK study. All handling, dosing, and blood sampling of the animals were performed by trained and skilled staff. Before the studies, the dogs were fasted overnight and from 0 to 4 hours after dosing. The dogs were restricted to water 1 hour before dosing until 4 hours after dosing, but otherwise had adlibitum access to water during the whole period.
The compositions were administered by a single oral dosing to the dogs in groups of 6-8 dogs. The tablets were administered in the following manner: 10 min prior to tablet administration, the dogs may be dosed subcutaneously with approximately 3 nmol/kg of SEQ ID NO.: 7 ([…]), then tablets were placed in the back of the mouth of the dog to prevent chewing. The mouth was then closed, and 10 mL of tap water was given by syringe or gavage to facilitate swallowing of the tablet.
One blood sample was drawn before dosing, and additional samples were drawn at predefined time points after dosing, such as for up to 600 hours, to adequately cover the full plasma concentration-time absorption profile of the test substance. For each blood sample time point, approximately 0.8 mL of whole blood was collected in a 1.5 mL EDTA-coated tube, which was gently turned to mix the sample with EDTA. Blood samples were collected in EDTA buffer (8 mM) and then centrifuged at 4° C. and 2000 g for 10 minutes. Plasma was pipetted into Micronic tubes on dry ice, and kept at −20° C. or lower until analysis. Blood samples were taken as appropriate, for example from a venflon in the cephalic vein in the front leg for the first 2 hours and then with syringe from the jugular vein for the rest of the time points. The first few drops were allowed to drain from the venflon to avoid heparin saline from the venflon in the sample. All blood samples were collected into test tubes containing EDTA for stabilisation and kept on ice until centrifugation. Plasma was separated from whole blood by centrifugation and the plasma was stored at −20° C. or lower until analysis.
The plasma was analysed for test substance using LC-MS (Liquid Chromatography-Mass Spectrometry) as known to the person skilled in the art. […]

[3] = physchem; format: physicochemical; settings: buffer, pH 7.4
Description: The assay was performed to investigate the conversion half-life of prodrug to drug of the prodrugs of the invention. The conversion half-life was investigated in vitro at pH 7.4 upon incubation at 37° C.
Test compounds were dissolved to a concentration of 100 μM in phosphate-buffered saline (140 mM NaCl, 2.07 mM KCl, 8.05 mM Na2HPO4, 1.96 mM KH2PO4, pH 7.4). Solution pH was measured after dissolution and adjusted to pH 7.4 with aqueous NaOH if necessary. The solution was filtered through a 0.22 μm syringe filter, then incubated in a water bath at 37° C. Aliquots were withdrawn at defined timepoints, e.g. every 24-72 hours, for LCMS analysis.
LCMS analysis was performed using the procedure defined in LCMS_A above. The AUC of the prodrug, active drug, and DKP were determined using UV detection at 214 nm, and the ratio of prodrug AUC over total AUC of prodrug plus active drug plus DKP was calculated. The negative natural logarithm of this ratio was plotted over time, and a linear regression of this relationship was then performed.
The prodrug to drug conversion half-life of the compounds of the invention was measured as described in General Methods for Measuring Conversion Half-life.

half-life [1] [h]	AUC/Dose [2] [kg·h/L]	Cmax/Dose [2] [kg/L]	Tmax [2] [h]	half-life [2] [h]	half-life at 100 μM [3] [h]	Compound
104						CC[C@H](C)[C@H](NC(=O)[C@H](Cc1ccccc1)NC(=O)[C@H](CCC(=O)O)NC(=O)[C@H](CCCNC(=N)N)NC(=O)[C@H](C)NC(=O)[C@H](C)NC(=O)[C@H](CCC(N)=O)NC(=O)[C@H](CCC(=O)O)NC(=O)[C@H](CCC(=O)O)NC(=O)[C@H](CC(C)C)NC(=O)[C@H](CC(C)C)NC(=O)[C@@H](NC(=O)[C@H](CO)NC(=O)[C@H](Cc1ccc(O)cc1)NC(=O)[C@H](CC(=O)O)NC(=O)[C@H](CO)NC(=O)[C@@H](NC(=O)[C@H](Cc1ccccc1)NC(=O)[C@@H](NC(=O)CNC(=O)[C@H](CCC(=O)O)NC(=O)C(C)(C)NC(=O)[C@@H](N)Cc1ccc(O)cc1)[C@@H](C)O)[C@@H](C)O)[C@@H](C)CC)C(=O)N[C@@H](CCC(=O)O)C(=O)N[C@@H](Cc1c[nH]c2ccccc12)C(=O)N[C@@H](CC(C)C)C(=O)N[C@@H](CC(C)C)C(=O)N[C@@H](C)C(=O)NCC(=O)NCC(=O)N1CCC[C@H]1C(=O)N[C@@H](CO)C(=O)N[C@@H](CCCCNC(=O)[C@@H](N)CCCCNC(=O)[C@@H](N)CCCCNC(=O)CC[C@H](NC(=O)CCCCCCCCCCCCCCC(=O)O)C(=O)O)C(=O)NCC(=O)N[C@@H](C)C(=O)N1CCC[C@H]1C(=O)N1CCC[C@H]1C(=O)N1CCC[C@H]1C(=O)N[C@@H](CO)C(=O)O [Parent compound 2] (H-Y[Aib]EGTFTSDYSILLEEQAAREFIEWLLAGGPSK([εLys-εLys-γGlu-C16 diacid])GAPPPS-OH)
170	20.1	0.21	1.5	137		H-K([γGlu-C16 diacid])VY[Aib]EGTFTSDYSILLEEQAAREFIEWLLAGGPSK([AEEA-AEEA-γGlu-C16 diacid])GAPPPS-OH [Non-converting compound 1]
	41.3	0.36	4.3	121	137	H-K([γGlu-C18 diacid])[Sar]Y[Aib]EGTFTSDYSILLEEQAAREFIEWLLAGGPSK([εLys-εLys-γGlu-C16 diacid])GAPPPS-OH [Compound 13]
	21.7	0.20	1.5	124	127	H-K([γGlu-C18 diacid])[Sar]Y[Aib]EGTFTSDYSILLEEQAAREFIEWLLAGGPSK([εLys-εLys-γGlu-C18 diacid])GAPPPS-OH [Compound 15]
	50.8	0.46	1.3	143	129	H-K([γGlu-C16 diacid])[Sar]Y[Aib]EGTFTSDYSILLEEQAAREFIEWLLAGGPSK([εLys-εLys-γGlu-C16 diacid])GAPPPS-OH [Compound 12]
	43.6	0.38	5.5	119	166	H-K(X1)[Sar]Y[Aib]EGTFTSDYSILLEEQAAREFIEWLLAGGPSK([εLys-εLys-γGlu-C16 diacid])GAPPPS-OH [Compound 14]

Compound	half-life [1] [h]	AUC/Dose [2] [kg·h/L]	Cmax/Dose [2] [kg/L]	Tmax [2] [h]	half-life [2] [h]	half-life at 100 μM [3] [h]
CC[C@H](C)[C@H](NC(=O)[C@H](CC(C)C)NC(=O)[C@H](Cc1c[nH]c2ccccc12)NC(=O)[C@H](CCC(N)=O)NC(=O)[C@@H](NC(=O)[C@H](Cc1ccccc1)NC(=O)[C@H](C)NC(=O)[C@H](CCCCNC(=O)COCCOCCNC(=O)COCCOCCNC(=O)CC[C@H](NC(=O)CCCCCCCCCCCCCCCCCCC(=O)O)C(=O)O)NC(=O)[C@H](CCC(N)=O)NC(=O)[C@H](C)NC(=O)[C@@H](NC(=O)[C@H](CCCCN)NC(=O)[C@H](CC(=O)O)NC(=O)[C@H](CC(C)C)NC(=O)C(C)(C)NC(=O)[C@@H](NC(=O)[C@H](CO)NC(=O)[C@H](Cc1ccc(O)cc1)NC(=O)[C@H](CC(=O)O)NC(=O)[C@H](CO)NC(=O)[C@@H](NC(=O)[C@H](Cc1ccccc1)NC(=O)[C@@H](NC(=O)CNC(=O)[C@H](CCC(=O)O)NC(=O)C(C)(C)NC(=O)[C@H](Cc1ccc(O)cc1)NC(=O)CN(C)C(=O)[C@@H](N)CCCCNC(=O)CC[C@H](NC(=O)CCCCCCCCCCCCCCC(=O)O)C(=O)O)[C@@H](C)O)[C@@H](C)O)[C@@H](C)CC)[C@@H](C)CC)C(C)C)C(=O)N[C@@H](C)C(=O)NCC(=O)NCC(=O)N1CCC[C@H]1C(=O)N[C@@H](CO)C(=O)N[C@@H](CO)C(=O)NCC(=O)N[C@@H](C)C(=O)N1CCC[C@H]1C(=O)N1CCC[C@H]1C(=O)N1CCC[C@H]1C(=O)N[C@@H](CO)C(N)=O [Compound 18]		13.3	0.15	4	88	101
